Measured values: BindingDB's records for doi:10.1016/j.ejmech.2015.07.016 (China Pharmaceutical University, 2015)
Square brackets hold non-standard residues; d marks the D form. Peptide text beside a SMILES is read from it. pGlu = O=C1CC[C@@H](C(=O)O)N1

Key:
[1] = Antagonist activity at GP2b/3a receptor in New Zealand rabbit platelet-rich plasma assessed as inhibition of ADP-induced platelet aggregation preincubated for 1 min followed by addition of ADP by aggregometer
[2] = Antagonist activity at GP2b/3a receptor in New Zealand rabbit platelet-rich plasma assessed as inhibition of U46619-induced platelet aggregation preincubated for 1 min followed by addition of ADP by aggregometer
[3] = Antagonist activity at GP2b/3a receptor in New Zealand rabbit platelet-rich plasma assessed as inhibition of thrombin-induced platelet aggregation preincubated for 1 min followed by addition of ADP by aggregometer
[4] = Antagonist activity at GP2b/3a receptor in New Zealand rabbit platelet-rich plasma assessed as inhibition of collagen-induced platelet aggregation preincubated for 1 min followed by addition of ADP by aggregometer

| SMILES | IC50 [1] | further results |
| --- | --- | --- |
| O=C(O)[C@H](Cc1c[nH]c2ccc(OCCCCC3CCNCC3)cc12)NS(=O)(=O)c1ccccc1 | 95.7 µM | – |
| COc1ccc(S(=O)(=O)N[C@@H](Cc2c[nH]c3ccc(OCCCCC4CCNCC4)cc23)C(=O)O)cc1 | > 500 µM | – |
| COc1ccc(C(=O)N[C@@H](Cc2c[nH]c3ccc(OCCCCC4CCNCC4)cc23)C(=O)O)cc1 | > 500 µM | – |
| O=C(O)[C@H](Cc1c[nH]c2ccc(OCCCCC3CCNCC3)cc12)NS(=O)(=O)c1ccc(Br)cc1 | 24.8 µM | IC50 [2]: 590 µM; IC50 [3]: 124 µM; IC50 [4]: 683 µM |
| O=C(N[C@@H](Cc1c[nH]c2ccc(OCCCCC3CCNCC3)cc12)C(=O)O)c1ccc(F)cc1 | 94.4 µM | – |
| O=C(N[C@@H](Cc1c[nH]c2ccc(OCCCCC3CCNCC3)cc12)C(=O)O)c1ccc([N+](=O)[O-])cc1 | 488 µM | – |
| O=C(O)[C@H](Cc1c[nH]c2ccc(OCCCCC3CCNCC3)cc12)NS(=O)(=O)c1ccc(F)cc1 | 93.1 µM | – |
| NC(=O)C[C@H](NC(=O)[C@@H]1CCC(=O)N1)C(=O)N[C@@H](Cc1c[nH]c2ccccc12)C(=O)O ([pGlu]-Asn-Trp-OH) | > 500 µM | – |

Second part, led by results:

| IC50 [1] | SMILES | further results |
| --- | --- | --- |
| 108 µM | Cc1ccc(S(=O)(=O)N[C@@H](Cc2c[nH]c3ccc(OCCCCC4CCNCC4)cc23)C(=O)O)cc1 | – |
| 96.1 µM | O=C(N[C@@H](Cc1c[nH]c2ccc(OCCCCC3CCNCC3)cc12)C(=O)O)c1cccc(F)c1 | – |
| 425 µM | O=C(O)[C@H](Cc1c[nH]c2ccc(OCCCCC3CCNCC3)cc12)NS(=O)(=O)c1ccc([N+](=O)[O-])cc1 | – |
| 86.5 µM | O=C(N[C@@H](Cc1c[nH]c2ccc(OCCCCC3CCNCC3)cc12)C(=O)O)c1cc(Cl)cc(Cl)c1 | – |
| > 500 µM | O=C(N[C@@H](Cc1c[nH]c2ccc(OCCCCC3CCNCC3)cc12)C(=O)O)c1ccccc1 | – |
